Test results: ChEMBL document CHEMBL1201862, “PubChem BioAssay data set” (2004)
Several values for one entry are separate records, joined by “and”; a condition that tells them apart may be missing. Identical values can stand only once. Each block holds one compound with its values, some of them ahead of it. Activity calls are given as the source filed them. Where a SMILES comes first, the peptide text is derived from it. [ ]: non-standard residue; d: D form. The star is where a group is joined. ξ: configuration not given here. Cbz = O=C(OCc1ccccc1)*; ξL = CC(C)CC(N)C(=O)O; ξP = O=C(O)C1CCCN1

Legend:
[1] = molecular target: Cytochrome P450 2C19 (Homo sapiens, UniProt P33261); experiment: Cytochrome panel assay with activity outcomes. Panel member name: p450-cyp2c19 Compounds with AC50 equal or less than 10 uM are considered active; format: functional; details: read-out: AC50
[2] = molecular target: Cytochrome P450 2C9 (Homo sapiens, UniProt P11712)
[3] = molecular target: T1, Cytochrome P450 1A2 (Homo sapiens, UniProt P05177)
T1 sequence (P05177 whole entry): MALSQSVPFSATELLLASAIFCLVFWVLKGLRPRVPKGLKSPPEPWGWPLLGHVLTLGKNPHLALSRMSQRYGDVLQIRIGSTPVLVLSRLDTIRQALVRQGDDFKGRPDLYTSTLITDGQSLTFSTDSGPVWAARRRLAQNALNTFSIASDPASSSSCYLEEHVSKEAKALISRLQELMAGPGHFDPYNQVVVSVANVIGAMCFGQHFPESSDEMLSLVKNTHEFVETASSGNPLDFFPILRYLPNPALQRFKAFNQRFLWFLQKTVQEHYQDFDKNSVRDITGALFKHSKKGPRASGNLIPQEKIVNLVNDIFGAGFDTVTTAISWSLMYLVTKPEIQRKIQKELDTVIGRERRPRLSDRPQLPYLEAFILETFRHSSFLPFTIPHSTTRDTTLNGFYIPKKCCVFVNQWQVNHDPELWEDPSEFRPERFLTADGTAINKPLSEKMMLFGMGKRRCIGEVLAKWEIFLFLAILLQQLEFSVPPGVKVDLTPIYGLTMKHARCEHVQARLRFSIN

[4] = molecular target: Cytochrome P450 2D6 (Homo sapiens, UniProt P10635);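 also: CYP2D6 member of a cytochrome P450 panel assay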
[5] = molecular target: T2, Heat shock factor protein 1 (Mus musculus, UniProt P38532); experiment: inhibition of MG132-induced HSE-luciferase signal, confirmation, cell-based, NIH3T3, luminescence, dose retest (AID 2382); format: functional;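 also: NIH3T3 fibroblasts with HSF1-driven luciferase reporter stressed by proteasome inhibitor MG132; luminescence from HSF1-driven luciferase expression after 8 hours of MG132 stress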
T2 sequence (P38532 whole entry): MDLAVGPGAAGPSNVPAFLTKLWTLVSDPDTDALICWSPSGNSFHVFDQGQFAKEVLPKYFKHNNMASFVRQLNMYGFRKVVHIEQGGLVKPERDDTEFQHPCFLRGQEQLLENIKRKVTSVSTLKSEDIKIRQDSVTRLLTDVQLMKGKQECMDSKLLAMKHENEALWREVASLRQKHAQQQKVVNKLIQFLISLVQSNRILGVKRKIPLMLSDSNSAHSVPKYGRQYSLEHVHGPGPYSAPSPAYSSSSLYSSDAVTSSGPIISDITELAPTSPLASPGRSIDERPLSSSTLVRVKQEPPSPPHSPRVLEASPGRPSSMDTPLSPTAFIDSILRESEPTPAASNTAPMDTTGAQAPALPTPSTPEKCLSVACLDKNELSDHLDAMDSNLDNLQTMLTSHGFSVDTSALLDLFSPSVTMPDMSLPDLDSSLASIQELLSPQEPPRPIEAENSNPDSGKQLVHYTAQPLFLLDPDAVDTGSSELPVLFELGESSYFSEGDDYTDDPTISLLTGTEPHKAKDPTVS

[6] = system: Streptococcus sp. 'group A'; experiment: growth inhibition of control SK(-) GAS strain, dose response, counter-screen for streptokinase expression inhibitor project, luminescence, kanamycin, BacTiterGlo, confirmation (AID 1900); format: functional, organism-based
[7] = system: Streptococcus; experiment: Group A Streptococcus viability loss, dose response, counter-screen for streptokinase expression inhibitor project, luminescence, BacTiterGlo (AID 1915); format: functional, organism-based;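 also: potency for reduction of bacterial viability or growth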
[8] = Luminescence Cell-Based Dose Retest to Confirm Inhibitors of Cancer Stem Cells. [Related pubchem assays (depositor defined):AID2717, AID2721]; format: functional; details: Homo sapiens
[9] = system: INS1; experiment: beta cell apoptosis inhibitors, cytokine rescue, dose response, luminescence, retest (AID 449756); format: functional, cell-based; details: Rattus norvegicus;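 also: cell death triggered by IL-1 beta plus TNF-alpha plus IFN-gamma mixture; protective hits raise ATP signal compared with cytokine alone wells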
[10] = molecular target: Cytochrome P450 3A4 (Homo sapiens, UniProt P08684);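 also: CYP3A4 tested as one member of a cytochrome P450 panel screen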
[11] = molecular target: Paired box protein Pax-8 (Homo sapiens, UniProt Q06710); experiment: inhibitors of PAX8-driven TPO luciferase reporter, dose response, RMG-I cells, cherry-pick (AID 687027); format: functional, cell-based;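 also: luciferase reporter driven by Pax8 target thyroperoxidase promoter measured by SteadyGlo luminescence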
Sequence of Paired box protein Pax-8 (Q06710 whole entry): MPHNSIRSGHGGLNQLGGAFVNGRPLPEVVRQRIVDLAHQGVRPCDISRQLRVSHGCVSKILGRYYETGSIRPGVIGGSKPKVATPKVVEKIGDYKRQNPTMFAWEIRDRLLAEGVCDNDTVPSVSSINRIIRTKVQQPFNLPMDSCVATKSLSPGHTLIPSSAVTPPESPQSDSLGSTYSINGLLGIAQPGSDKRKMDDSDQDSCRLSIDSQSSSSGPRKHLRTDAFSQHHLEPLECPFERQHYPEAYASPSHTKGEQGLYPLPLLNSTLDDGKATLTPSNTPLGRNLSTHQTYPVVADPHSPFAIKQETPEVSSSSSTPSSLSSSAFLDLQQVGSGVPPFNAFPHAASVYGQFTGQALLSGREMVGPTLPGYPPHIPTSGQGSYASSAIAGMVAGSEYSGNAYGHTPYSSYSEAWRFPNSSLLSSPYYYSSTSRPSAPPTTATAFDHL

Sequence of Cytochrome P450 2C9 (P11712 whole entry): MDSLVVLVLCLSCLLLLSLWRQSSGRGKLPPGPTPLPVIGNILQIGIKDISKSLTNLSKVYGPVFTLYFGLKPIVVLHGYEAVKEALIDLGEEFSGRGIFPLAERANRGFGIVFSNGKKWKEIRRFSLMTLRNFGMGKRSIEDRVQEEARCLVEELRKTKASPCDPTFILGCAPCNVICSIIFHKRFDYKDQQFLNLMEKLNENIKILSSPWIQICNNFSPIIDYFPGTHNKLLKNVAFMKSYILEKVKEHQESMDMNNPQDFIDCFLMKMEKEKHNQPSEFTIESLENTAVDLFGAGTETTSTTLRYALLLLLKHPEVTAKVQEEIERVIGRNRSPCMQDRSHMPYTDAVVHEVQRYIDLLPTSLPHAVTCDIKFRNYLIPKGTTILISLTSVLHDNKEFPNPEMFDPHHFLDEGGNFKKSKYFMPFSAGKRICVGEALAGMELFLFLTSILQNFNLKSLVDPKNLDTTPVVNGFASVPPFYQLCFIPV
Sequence of Cytochrome P450 2C19 (P33261 whole entry): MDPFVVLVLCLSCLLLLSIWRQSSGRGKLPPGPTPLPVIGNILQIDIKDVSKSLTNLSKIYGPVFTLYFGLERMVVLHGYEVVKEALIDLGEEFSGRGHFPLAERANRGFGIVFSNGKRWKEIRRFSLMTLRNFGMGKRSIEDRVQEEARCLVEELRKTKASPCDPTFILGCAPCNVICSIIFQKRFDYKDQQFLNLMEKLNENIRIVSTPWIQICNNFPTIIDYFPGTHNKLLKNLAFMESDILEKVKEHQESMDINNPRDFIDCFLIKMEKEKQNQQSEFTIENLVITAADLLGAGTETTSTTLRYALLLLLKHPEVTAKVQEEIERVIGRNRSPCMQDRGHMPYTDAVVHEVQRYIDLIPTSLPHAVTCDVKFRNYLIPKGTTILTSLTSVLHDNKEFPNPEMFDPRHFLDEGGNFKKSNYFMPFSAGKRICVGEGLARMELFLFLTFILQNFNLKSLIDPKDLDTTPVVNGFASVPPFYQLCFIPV
Sequence of Cytochrome P450 2D6 (P10635 whole entry): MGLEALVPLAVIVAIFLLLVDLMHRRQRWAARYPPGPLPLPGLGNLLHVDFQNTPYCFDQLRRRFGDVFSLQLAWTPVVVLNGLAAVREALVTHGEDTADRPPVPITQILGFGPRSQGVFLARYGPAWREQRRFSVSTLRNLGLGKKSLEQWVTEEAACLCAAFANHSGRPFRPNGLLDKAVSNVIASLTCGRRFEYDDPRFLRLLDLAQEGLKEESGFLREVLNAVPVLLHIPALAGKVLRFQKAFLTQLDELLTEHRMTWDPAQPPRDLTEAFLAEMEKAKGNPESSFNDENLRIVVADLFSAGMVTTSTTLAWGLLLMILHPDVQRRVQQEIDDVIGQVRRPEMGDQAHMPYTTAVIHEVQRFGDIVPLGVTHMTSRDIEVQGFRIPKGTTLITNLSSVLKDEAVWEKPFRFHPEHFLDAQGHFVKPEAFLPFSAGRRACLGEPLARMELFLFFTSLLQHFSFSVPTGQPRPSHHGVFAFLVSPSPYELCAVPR
Sequence of Cytochrome P450 3A4 (P08684 whole entry): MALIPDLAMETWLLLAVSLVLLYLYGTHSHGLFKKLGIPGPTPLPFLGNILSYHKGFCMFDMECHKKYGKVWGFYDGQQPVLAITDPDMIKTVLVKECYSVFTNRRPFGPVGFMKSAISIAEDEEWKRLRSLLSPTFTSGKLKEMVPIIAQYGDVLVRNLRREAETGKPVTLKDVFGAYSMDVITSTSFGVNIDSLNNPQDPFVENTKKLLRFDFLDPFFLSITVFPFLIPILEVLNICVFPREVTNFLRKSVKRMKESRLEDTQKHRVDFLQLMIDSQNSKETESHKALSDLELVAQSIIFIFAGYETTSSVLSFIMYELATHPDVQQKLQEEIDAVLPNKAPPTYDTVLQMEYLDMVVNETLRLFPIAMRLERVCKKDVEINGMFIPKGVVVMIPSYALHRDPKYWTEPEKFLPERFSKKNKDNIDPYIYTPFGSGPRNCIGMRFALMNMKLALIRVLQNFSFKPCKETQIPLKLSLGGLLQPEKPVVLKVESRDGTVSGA

- AC50 [1]: 0.00562 µM (inconclusive)
- AC50 [2]: 3.16 µM (inconclusive)
Compound: O=[N+]([O-])c1cccnc1N1CCCCC1

- AC50 [3]: 20 µM (inconclusive)
Compound: Cn1cccc1C(=O)N1CCC2(CC1)CCN(c1cccc(-c3ccccc3)c1)CC2

- AC50 [2]: 25.1 µM (inconclusive)
- AC50 [4]: 15.8 µM (inconclusive)
Compound: C[C@H](CO)NC(=O)[C@H](C)[C@H]1C[C@]1(C)[C@H](NC(=O)OCc1ccccc1)c1ccccc1

- EC50 [5]: > 195 µM (not active)
Compound: COc1cc(N)ccc1C(=O)O

Compound: C[C@H]1CC[C@@]2(C)[C@@H](CC[C@@H]3[C@@H]2CC[C@]2(C)[C@@H](O)CC[C@@H]32)C1
- EC50 [6]: 0.643 µM (active)
- EC50 [7]: 2.65 µM (active)

- EC50 [5]: > 195 µM (not active)
Compound: CN(C(=O)C1CCOC1)c1nnc(-c2ccncc2)s1 (stereo unspecified)

- AC50 [2]: 25.1 µM (inconclusive)
Compound: O=Nc1ccc(NOC(=O)c2ccc(Br)cc2)cc1

- AC50 [2]: 25.1 µM (inconclusive)
- AC50 [4]: 25.1 µM (inconclusive)
Compound: C=CCSc1nn2c(=O)c3ccccc3nc2s1

- AC50 [3]: 5.01 µM (inconclusive)
Compound: CCC(=O)[C@@H](c1ccccc1)c1ccccn1

- AC50 [2]: 39.8 µM (inconclusive)
Compound: CC(=O)Nc1ccc(C(=O)NNC(=O)CCc2ccccc2)cc1

Compound: CC(Nc1nc(-c2ccc(Cl)cc2)cs1)c1nc2cc(Cl)c(N3CCCCC3)cc2n1CCOCCO (stereo unspecified)
- AC50 [8]: 1.1 µM (active)

Compound: COc1ccc(-c2sc3ccccc3c2-c2ccc(OCCN3CCCCC3)cc2)cc1
- AC50 [9]: 8.34 µM (active)
- AC50 [8]: 0.914 µM (active)

- AC50 [1]: 11.2 µM (inconclusive)
- AC50 [10]: 15.8 µM (inconclusive)
Compound: CCOc1ccc(N2C(=O)CN=C2Nc2ccccc2Cl)cc1

Compound: CC(=CCOc1ccc2ccc(=O)oc2c1)C1=CC(=O)C(C)(C)O1
- AC50 [11]: 4.95 µM (active)

- AC50 [11]: 8.05 µM (active)
Compound: C[C@@H]1CCCCO[C@H](CN(C)C(=O)Cc2ccccc2)[C@H](C)CN([C@@H](C)CO)C(=O)c2cc(NC(=O)Nc3ccc(C(F)(F)F)cc3)ccc2O1

- AC50 [11]: 23.7 µM (active)
Compound: O=C(C[C@H]1CC[C@H]2[C@@H](COC[C@@H](O)CN2S(=O)(=O)c2ccccc2Cl)O1)N1CCC(Cc2ccccc2)CC1

Compound: CCCCCCc1c(O)noc1C[C@H](N)C(=O)O
- AC50 [3]: 25.1 µM (inconclusive) and 31.6 µM (inconclusive)

- AC50 [2]: 1.58 µM (inconclusive)
Compound: Cc1ccc(S(=O)(=O)N(CC(=O)N/N=C/c2ccc(F)cc2)c2cccc3cccnc23)cc1

- EC50 [5]: > 195 µM (not active)
Compound: Oc1ccccc1/C=N/Nc1nnn[nH]1

- EC50 [5]: > 195 µM (not active)
Compound: CC(C)NC(=O)CC(=O)N/N=C\c1ccccc1C(=O)O

- AC50 [2]: 25.1 µM (inconclusive)
Compound: C/C(=N/NC(=O)Cc1cccn1C)c1ccccc1

- AC50 [2]: 2.82 µM (inconclusive)
Compound: CCOC(=O)C1=C(N)n2c(s/c(=C/c3ccccc3)c2=O)=C(C(=O)OCC)C1c1ccccc1 (stereo unspecified)

- EC50 [5]: > 195 µM (not active)
Compound: C/C(CC(=O)Nc1ccc(N(C)C)cc1)=N\NC(=O)Cc1csc(N)n1

- AC50 [1]: 31.6 µM (inconclusive)
- AC50 [3]: 15.8 µM (inconclusive)
Compound: Cc1cccc(CNc2ncncc2-c2ccc(C(=O)N(C)C)cc2)c1

- AC50 [2]: 0.631 µM (inconclusive)
Compound: COc1cccc(-c2ccc3ncnc(NCc4cccs4)c3c2)c1

- AC50 [1]: 10 µM (inconclusive)
- AC50 [3]: 31.6 µM (inconclusive)
Compound: CCCCCCN(CCCCCC)C(=O)Cc1c(-c2ccc(Cl)cc2)[nH]c2ccc(Cl)cc12

- EC50 [5]: > 195 µM (not active)
Compound: CC(C)CC(NC(=O)C1CCCN1C(=O)[C@@H](C)NC(=O)OCc1ccccc1)C(=O)NCC(N)=O (stereo partly specified) (Cbz-[dA][ξP][ξL]G-NH2)

- AC50 [3]: 39.8 µM (inconclusive)
Compound: O=C(O)c1cc([N+](=O)[O-])ccc1NCCCc1ccccc1 [5-NITRO-2-PHENYLPROPYLAMINOBENZOIC ACID [NPPB]]
